Patent US8129547B2, “Anticoagulation of human blood ex vivo” (priority 2006, dated 2012)

How the values were obtained:
Assay type in all cases: biochemical
Factor VIIa = molecular target: T1, Factor VIIa (Homo sapiens, UniProt P08709); assay: Determination of Ki values, chromogenic substrate, Dixon evaluation: Factor VIIa; settings: 25° C., tris buffer pH 8.0, substrate CH3SO2-D-phe-Gly-Arg-pNA
T1 construct: purchased Haemochrom Diagnostica GmbH (Essen, D)
T1 sequence (P08709 213-466 limits assumed): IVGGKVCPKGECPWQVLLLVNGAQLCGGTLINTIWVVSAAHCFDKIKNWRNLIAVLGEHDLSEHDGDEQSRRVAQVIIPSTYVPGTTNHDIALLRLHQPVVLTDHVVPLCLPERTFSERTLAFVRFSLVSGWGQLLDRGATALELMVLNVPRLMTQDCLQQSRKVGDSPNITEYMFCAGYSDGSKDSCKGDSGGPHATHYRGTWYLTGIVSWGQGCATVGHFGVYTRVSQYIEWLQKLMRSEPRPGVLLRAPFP
T1 sequence (P08709 61-212 partner limits assumed): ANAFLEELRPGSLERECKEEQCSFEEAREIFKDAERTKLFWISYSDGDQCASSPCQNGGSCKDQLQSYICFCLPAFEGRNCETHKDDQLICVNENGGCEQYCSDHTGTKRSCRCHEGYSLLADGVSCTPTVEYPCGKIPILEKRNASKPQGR
From the text: (§1) The inhibitors used here are the commercially available exemplary inhibitors Pefabloc tPA/Xa (2,7-bis(4-amidinobenzylidene)-cyclopeptanone-(1), Pentapharm Ltd. Basel, Switzerland), CJ-FXa (benzylsulphonyl-D-arginyl-glycyl-4-amidinobenzylamide, Haemochrom GmbH, Essen, Germany) and CJ-PK (benzylsulphonyl-D-seryl-carbobenzoxylsyl-4-amidinobenzylamide, Haemochrom GmbH, Essen, Germany). Research samples were available of DX-9065a ((+)-(2S)-2-[4-[[3S)-1-acetimidoyl-3-pyrrodinyl]oxy]phenyl]-3-[7-amidino-2-naphthyl]propanic acid, Daiichi Pharmaceutical Company Ltd., Tokyo, Japan), and Otamixaban (2-(R)-(3-carbamimidoylbenyzyl)-3-(R)-[4-(1-oxypyridin-4-yl)benzoylamino]-butyric acid-methylester, Sanofi-Aventis GmbH, Frankfurt, Germany), both of which are undergoing clinical tests. In order to examine the inhibitory action of these exemplarily used inhibitors on the blood coagulation factors plasma-kallikrein, VIIa, Xa, XIa and XIIa, the Ki values of the respective enzyme-inhibitor complexes were determined.
(§2) The enzymes were produced by Haemochrom Diagnostica GmbH (Essen, D) and were dissolved in 0.154 mol/l NaCl. The substrates (Pentapharm AG, Basel, CH) were dissolved in H2O and the inhibitor was dissolved in the above-mentioned tris buffer. The following substrates were used for the individual enzymes:
(§3) 200 μl of inhibitor solution were mixed with 25 μl of substrate for the determination and the reaction was started by the addition of 50 μl of enzyme. After a reaction time of 3-5 mins. 25 μl of acetic acid (50%) were added and the extinction was measured at 405 nm with a microplate reader (iEMS Reader MF 12401, Labsystems, Helsinki, Finland). The evaluation was carried out graphically according to Dixon (Biochem. J., 55, 170, 1953).
(§4) The enzymes were produced by Haemochrom Diagnostica GmbH (Essen, D), and only thrombin was manufactured in our own laboratory according to Walsmann (Pharmazie 23, 401-402, 1968). All the enzymes were dissolved in 0.154 mol/l NaCl. The substrates (Pentapharm AG, Basel, CH) were dissolved in H2O and the inhibitor was dissolved in the above-mentioned tris buffer. The following substrates were used for the individual enzymes:
as §3, with “1401,” for “12401,”

Factor XIIa = molecular target: T2, Factor XIIa (Homo sapiens, UniProt P00748); assay: Determination of Ki values, chromogenic substrate, Dixon evaluation: Factor XIIa; settings: 25° C., tris buffer pH 8.0, substrate H-D-HHT-Gly-Arg-pNA
T2 construct: purchased Haemochrom Diagnostica GmbH (Essen, D)
T2 sequence (P00748 373-615 limits assumed): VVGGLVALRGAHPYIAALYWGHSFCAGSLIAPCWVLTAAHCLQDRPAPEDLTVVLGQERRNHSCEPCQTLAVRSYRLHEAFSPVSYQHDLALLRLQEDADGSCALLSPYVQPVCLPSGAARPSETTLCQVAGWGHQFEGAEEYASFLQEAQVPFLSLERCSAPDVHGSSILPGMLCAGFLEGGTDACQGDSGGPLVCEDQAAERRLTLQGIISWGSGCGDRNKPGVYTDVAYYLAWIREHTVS
From the text: as §1, §2, §3, §4
as §3, with “1401,” for “12401,”

Plasma-kallikrein = molecular target: T3, Plasma-kallikrein (Homo sapiens, UniProt P03952); assay: Determination of Ki values, chromogenic substrate, Dixon evaluation: plasma-kallikrein; settings: 25° C., tris buffer pH 8.0, substrate Bz-Pro-Phe-Arg-pNA; read-out: Ki PK (plasma-kallikrein)
T3 construct: purchased Haemochrom Diagnostica GmbH (Essen, D)
T3 sequence (P03952 391-638 limits assumed): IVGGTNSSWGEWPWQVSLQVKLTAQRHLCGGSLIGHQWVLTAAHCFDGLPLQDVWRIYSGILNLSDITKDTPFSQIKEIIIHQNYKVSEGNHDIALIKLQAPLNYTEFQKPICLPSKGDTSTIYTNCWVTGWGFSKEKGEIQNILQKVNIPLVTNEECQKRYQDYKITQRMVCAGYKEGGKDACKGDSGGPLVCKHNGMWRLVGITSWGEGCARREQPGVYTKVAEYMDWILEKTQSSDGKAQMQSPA
T3 sequence (P03952 20-390 partner limits assumed): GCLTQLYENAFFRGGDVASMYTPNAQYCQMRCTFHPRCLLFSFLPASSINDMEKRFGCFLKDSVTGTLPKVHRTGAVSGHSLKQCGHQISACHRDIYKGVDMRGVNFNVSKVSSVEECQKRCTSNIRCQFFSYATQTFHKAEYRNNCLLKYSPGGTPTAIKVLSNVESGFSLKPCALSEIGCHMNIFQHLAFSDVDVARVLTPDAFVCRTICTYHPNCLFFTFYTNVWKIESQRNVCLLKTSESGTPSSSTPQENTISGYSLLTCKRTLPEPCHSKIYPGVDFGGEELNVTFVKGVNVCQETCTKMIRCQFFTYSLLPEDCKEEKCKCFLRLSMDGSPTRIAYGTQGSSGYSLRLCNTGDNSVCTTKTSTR
From the text: In a particularly preferred embodiment the compound according to Formula (I) inhibits not only the blood coagulation factor XA but also thrombin and/or plasma kallikrein. […] Here too the Ki value stands for the dissociation constant of the respective enzyme-inhibitor complex. The determination of the Ki values of the inhibitors vis-a-vis thrombin and plasma kallikrein is preferably carried out in a similar manner to the determination, described above, of the Ki values of the inhibitors vis-a-vis the coagulation factor Xa, but in this case CH3SO2-D-HHT-gly-arg-pNA (with HHT=hexahydrothyrosin, and pNA=para-nitroaniline; sold under the commercial name Pefachrome tPA) are used as substrates in the case of thrombin and bz-pro-phe-arg-pNA (with bz=[…], and pNA=para-nitroaniline; sold under the commercial name Chromozym PK) in the case of plasma-kallikrein.
as §1, §2, §3, §4
as §3, with “1401,” for “12401,”

N=C(N)c1ccc(C=C2CCCCC(=Cc3ccc(C(=N)N)cc3)C2=O)cc1 [Pefabloc tPA/Xa, 2,7-bis(4-amidinobenzylidene)-cycloheptanone-(1)]
Ki (Factor VIIa): 140 µM
Ki (Factor XIIa): 0.36 µM
Ki (Plasma-kallikrein): 0.72 µM

COC(=O)[C@H](Cc1cccc(C(=N)N)c1)[C@@H](C)NC(=O)c1ccc(-c2cc[n+]([O-])cc2)cc1 (mixture of isomers) [Otamixaban, 2-(R)-(3-carbamimidoylbenyzyl)-3-(R)-[4-(1-oxypyridin-4-yl)benzoylamino]-butyric acid-methylester]
Ki (Factor VIIa): 19 µM
Ki (Factor XIIa): > 1000 µM
Ki (Plasma-kallikrein): 0.026 µM
